Drawing on ChEMBL document CHEMBL2046320, “Bisubstrate analog inhibitors of 6-hydroxymethyl-7,8-dihydropterin pyrophosphokinase: new lead exhibits a distinct binding mode” (Bioorg Med Chem, 2012), this text covers Kd and IC50 for one compound.

Experiment [1] deals with T1, 2-amino-4-hydroxy-6-hydroxymethyldihydropteridine pyrophosphokinase (Escherichia coli (strain K12), UniProt P26281).
T1 sequence (P26281 whole entry): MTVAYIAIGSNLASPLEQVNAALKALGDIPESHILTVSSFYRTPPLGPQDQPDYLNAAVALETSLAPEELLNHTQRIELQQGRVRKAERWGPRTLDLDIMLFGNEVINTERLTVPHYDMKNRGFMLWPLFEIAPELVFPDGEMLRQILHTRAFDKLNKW
The experiment in a line: Binding affinity to Escherichia coli HPPK at pH 8.3 by fluorometric titration.

In experiment [2] the target is T1, 2-amino-4-hydroxy-6-hydroxymethyldihydropteridine pyrophosphokinase. As to the kind of experiment: Inhibition of Escherichia coli HPPK using [alpha-33P]ATP after 30 mins.

As for `CC1(C)Nc2nc(N)[nH]c(=O)c2N=C1C(=O)NCC(=O)NCCS(=O)(=O)C[C@H]1O[C@@H](n2cnc3c(N)ncnc32)[C@H](O)[C@@H]1O`, binding in experiment [1] was characterised by a dissociation constant (Kd) of 4.16 µM. In addition, the IC50 in experiment [2] worked out at 9.53 µM.

In general, Kd refers to the constant that tells how readily two partners part at equilibrium. A word on the IC50: it is the concentration at which inhibition is half-maximal. A low value points to inhibition by little substance.
